{"source": "ChEMBL document CHEMBL5465560", "about": "“Selectivity Literature for EUbOPEN Chemogenomic Library” (2024)", "key": {"[1]": {"biological_target": "T1, Serine/threonine-protein kinase Nek2 (Homo sapiens) (UniProt P51955)", "T1 sequence (whole entry)": "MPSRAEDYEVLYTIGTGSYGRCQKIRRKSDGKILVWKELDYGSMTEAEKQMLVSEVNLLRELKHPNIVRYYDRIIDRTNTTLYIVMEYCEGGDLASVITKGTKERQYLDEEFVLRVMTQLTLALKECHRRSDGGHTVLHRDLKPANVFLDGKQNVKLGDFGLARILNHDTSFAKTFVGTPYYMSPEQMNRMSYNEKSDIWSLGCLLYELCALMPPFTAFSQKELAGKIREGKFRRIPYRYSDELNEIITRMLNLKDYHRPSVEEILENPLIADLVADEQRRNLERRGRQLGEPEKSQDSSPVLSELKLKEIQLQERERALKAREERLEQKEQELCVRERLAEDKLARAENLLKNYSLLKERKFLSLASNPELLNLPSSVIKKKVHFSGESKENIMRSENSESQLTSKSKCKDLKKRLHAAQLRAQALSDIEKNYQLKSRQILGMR", "test": "Selectivity interaction (Kinase panel (DSF assay)) EUB0001558a NEK2"}, "[2]": {"biological_target": "T2, 3-phosphoinositide-dependent protein kinase 1 (Homo sapiens) (UniProt O15530)", "T2 sequence (whole entry)": "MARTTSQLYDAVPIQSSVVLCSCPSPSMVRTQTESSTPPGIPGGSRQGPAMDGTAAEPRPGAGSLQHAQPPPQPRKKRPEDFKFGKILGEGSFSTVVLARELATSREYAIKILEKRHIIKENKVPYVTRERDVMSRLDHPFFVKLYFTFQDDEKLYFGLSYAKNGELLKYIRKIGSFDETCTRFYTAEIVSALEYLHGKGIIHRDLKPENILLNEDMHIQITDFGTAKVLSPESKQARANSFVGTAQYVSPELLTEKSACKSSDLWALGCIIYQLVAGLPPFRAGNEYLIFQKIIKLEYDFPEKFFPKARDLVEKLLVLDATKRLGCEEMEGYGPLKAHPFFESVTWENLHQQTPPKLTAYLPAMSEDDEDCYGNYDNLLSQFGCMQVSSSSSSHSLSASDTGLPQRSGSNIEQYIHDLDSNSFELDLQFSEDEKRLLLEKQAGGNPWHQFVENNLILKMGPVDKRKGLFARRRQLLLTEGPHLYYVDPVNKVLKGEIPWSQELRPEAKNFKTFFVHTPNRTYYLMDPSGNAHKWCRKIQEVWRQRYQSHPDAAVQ", "test": "Selectivity interaction (KinomeScan (DiscoverX)) EUB0000618a PDPK1", "conditions": "at 10 µM"}, "[3]": {"biological_target": "T3, Megakaryocyte-associated tyrosine-protein kinase (Homo sapiens) (UniProt P42679)", "T3 sequence (whole entry)": "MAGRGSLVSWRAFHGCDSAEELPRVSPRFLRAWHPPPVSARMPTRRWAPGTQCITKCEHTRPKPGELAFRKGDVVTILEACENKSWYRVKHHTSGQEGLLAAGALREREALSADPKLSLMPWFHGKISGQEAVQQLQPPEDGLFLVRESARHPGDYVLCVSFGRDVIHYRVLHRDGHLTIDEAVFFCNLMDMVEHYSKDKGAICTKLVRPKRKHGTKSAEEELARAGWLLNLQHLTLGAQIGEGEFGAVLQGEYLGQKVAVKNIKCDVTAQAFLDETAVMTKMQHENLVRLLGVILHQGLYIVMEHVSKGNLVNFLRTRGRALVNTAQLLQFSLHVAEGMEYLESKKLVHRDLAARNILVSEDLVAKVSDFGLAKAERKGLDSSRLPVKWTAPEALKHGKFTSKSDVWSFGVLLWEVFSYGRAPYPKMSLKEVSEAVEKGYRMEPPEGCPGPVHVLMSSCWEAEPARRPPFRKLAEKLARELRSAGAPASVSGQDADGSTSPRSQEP", "test": "Selectivity interaction (KinomeScan (DiscoverX)) EUB0000655a MATK", "conditions": "at 10 µM"}, "[4]": {"biological_target": "T4, Serine/threonine-protein kinase Nek9 (Homo sapiens) (UniProt Q8TD19)", "T4 sequence (whole entry)": "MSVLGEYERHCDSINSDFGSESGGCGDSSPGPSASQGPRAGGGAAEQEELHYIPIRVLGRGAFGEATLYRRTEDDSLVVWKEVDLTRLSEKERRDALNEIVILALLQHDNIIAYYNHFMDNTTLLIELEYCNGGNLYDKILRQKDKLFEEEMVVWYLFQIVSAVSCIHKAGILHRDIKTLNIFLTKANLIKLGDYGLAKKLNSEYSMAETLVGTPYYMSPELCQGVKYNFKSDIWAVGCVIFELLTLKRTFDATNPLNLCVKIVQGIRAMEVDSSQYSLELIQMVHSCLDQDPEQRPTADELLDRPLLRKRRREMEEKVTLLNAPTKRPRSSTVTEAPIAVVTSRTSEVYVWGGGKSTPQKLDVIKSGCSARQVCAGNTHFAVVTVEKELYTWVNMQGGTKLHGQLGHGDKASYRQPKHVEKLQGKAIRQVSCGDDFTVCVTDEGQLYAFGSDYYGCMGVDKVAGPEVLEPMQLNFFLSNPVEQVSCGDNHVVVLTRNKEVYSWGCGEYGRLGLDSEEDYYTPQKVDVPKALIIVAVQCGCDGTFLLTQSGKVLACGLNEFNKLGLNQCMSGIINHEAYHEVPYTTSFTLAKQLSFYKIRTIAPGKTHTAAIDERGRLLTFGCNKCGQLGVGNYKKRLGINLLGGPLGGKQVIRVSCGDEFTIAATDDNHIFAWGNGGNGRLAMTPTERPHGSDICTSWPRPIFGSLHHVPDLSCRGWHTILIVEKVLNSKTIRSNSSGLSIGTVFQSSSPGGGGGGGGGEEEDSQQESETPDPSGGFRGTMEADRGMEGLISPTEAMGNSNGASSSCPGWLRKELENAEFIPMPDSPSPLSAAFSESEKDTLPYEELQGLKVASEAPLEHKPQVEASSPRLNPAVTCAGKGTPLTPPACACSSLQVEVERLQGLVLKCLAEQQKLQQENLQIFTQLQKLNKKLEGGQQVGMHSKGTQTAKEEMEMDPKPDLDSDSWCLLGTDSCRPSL", "test": "Selectivity interaction (Ambit KINOMEscan and KiNATiv profiling in Jurkat cells) EUB0000090b NEK9", "format": "cell-based", "conditions": "at 1 µM"}}, "data": [{"compound": "CC(C)(O)[C@H](F)CN1Cc2cc(NC(=O)c3cnn4cccnc34)c(N3CCOCC3)cc2C1=O", "values": [{"measurement": "dTM", "setting": "[1]", "result": 0.4, "unit": "K"}]}, {"compound": "O[C@H]1CC[C@H](Nc2ncc3nc(Nc4c(F)cc(F)cc4F)n([C@H]4CCOC4)c3n2)CC1", "values": [{"measurement": "% of control", "setting": "[2]", "result": 100, "unit": "%"}]}, {"compound": "CN(C)CCOc1ccc(-c2nc(-c3ccncc3)c(-c3ccc4c(c3)CC/C4=N\\O)[nH]2)cc1", "values": [{"measurement": "% of control", "setting": "[3]", "result": 100, "unit": "%"}]}, {"compound": "CN(C)C/C=C/C(=O)Nc1ccc(C(=O)N2CCCC(Nc3ncc(Cl)c(-c4c[nH]c5ccccc45)n3)C2)cc1", "note": "(centres undefined)", "values": [{"measurement": "% of control", "setting": "[4]", "result": 100, "unit": "%"}]}]}
